# Literature values in patent US20030124640A1, “Predictive assay for the outcome of IVF” (Royal Free Hospital School of Medicine, priority 1996, published 2003).
# Where two headings read alike, the source gives them in different places.
# How the values were obtained:
# 11β-HSD2 = biological target: T1, 11β-HSD2 (Homo sapiens, UniProt P80365); settings: renal isoform 11β-HSD2, NAD+ dependent 11β-dehydrogenase
# T1 sequence (P80365 1-405): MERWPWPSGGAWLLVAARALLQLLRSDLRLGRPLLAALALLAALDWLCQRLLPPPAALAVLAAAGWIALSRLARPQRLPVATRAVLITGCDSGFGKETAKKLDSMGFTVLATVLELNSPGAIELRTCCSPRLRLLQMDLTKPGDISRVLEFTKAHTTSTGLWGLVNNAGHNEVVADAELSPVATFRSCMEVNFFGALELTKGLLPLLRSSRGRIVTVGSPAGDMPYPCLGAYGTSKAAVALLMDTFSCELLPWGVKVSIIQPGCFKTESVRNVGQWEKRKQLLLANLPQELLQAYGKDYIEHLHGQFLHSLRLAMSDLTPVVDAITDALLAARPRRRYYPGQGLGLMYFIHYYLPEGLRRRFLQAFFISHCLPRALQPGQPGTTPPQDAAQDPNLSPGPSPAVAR
# ovarian 11β-HSD = settings: for Inhibition of 11β-HSD activity: cultured human granulosa-lutein cells; for Acute effect on ovarian 11β-HSD activity: in vitro
# renal 11β-HSD = biological target: T2, renal 11β-HSD (Homo sapiens, UniProt P80365)
# T2 sequence (P80365 1-405): T1 sequence (P80365 1-405)
# [1] = hepatic isoform 11βHSD1, NADP(H) cofactor, read-out: Km for 11β-dehydrogenase activity
Structure (SMILES),Km (11βHSD1; [1]),Km (11β-HSD2),Inhibition of 11β-HSD activity (ovarian 11β-HSD),Acute effect on ovarian 11β-HSD activity (ovarian 11β-HSD),Acute effect on renal 11β-HSD activity (renal 11β-HSD),also measured
C[C@]12C[C@H](O)[C@H]3[C@@H](CCC4=CC(=O)CC[C@@]43C)[C@@H]1CC[C@@H]2C(=O)CO [corticosterone],~2 µM,0.026 µM,–,–,–,–
C[C@]12CCC(=O)C=C1CC[C@@H]1[C@@H]2[C@@H](O)C[C@@]2(C)[C@H]1CC[C@]2(O)C(=O)CO [cortisol],17 µM,0.04 µM,–,–,–,–
C[C@]12CCC(=O)C=C1CC[C@@H]1[C@@H]2C(=O)C[C@@]2(C)[C@H]1CC[C@]2(O)C(=O)CO [cortisone],–,–,–,–,–,"Km (11βHSD1; hepatic isoform 11βHSD1, cortisone to cortisol, read-out: Km for cortisone (11-ketosteroid reductase activity)): 0.14 to 0.272 µM"
C[C@]12CC[C@@H]3c4ccc(O)cc4CC[C@H]3[C@@H]1CC[C@@H]2O [oestradiol],–,–,–,–,–,Effect on hepatic 11β-HSD activity in vivo (hepatic 11β-HSD): inhibits
CC(=O)[C@H]1CC[C@H]2[C@@H]3CC=C4C[C@@H](O)CC[C@]4(C)[C@H]3CC[C@]12C [pregnenolone],–,–,can inhibit,inhibit,inhibit,–
CC(=O)[C@H]1CC[C@H]2[C@@H]3CCC4=CC(=O)CC[C@]4(C)[C@H]3CC[C@]12C [progesterone],–,–,can inhibit,inhibit,inhibit,–
